Source: US12239643B2, “Therapeutic agent for inflammatory diseases, autoimmune diseases, fibrotic diseases, and cancer diseases” (MEIJI SEIKA PHARMA CO., LTD., priority 2018, dated 2025)
Where two headings read alike, the source gives them in different places.

How the values were obtained:
PDE4 = assay: Evaluation of PDE4 inhibitory activity, scintillation proximity assay; format: biochemical; conditions: for PDE4 inhibitory activity: summary in words of Tables 57 to 69
Procedure, shortened: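 IC50 was derived from inhibition curves, referenced to an enzyme-free blank and a DMSO-only control. Compound, PDE4 preparation and tritiated cAMP reacted 120 min at RT in Tris-HCl buffer (pH 7.4) with MgCl2, EGTA and BSA; YSi-SPA beads with ZnSO4 bound product before scintillation counting.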

[1] = tested on: oxazolone-induced auricle edema, BALB/c mice; assay: Hapten repeated application mouse chronic dermatitis model (oral, topical); format: in vivo; conditions: oral, 0.3 to 10 mg/kg twice a day for 10 days
Experimental: Evaluation was carried out using female BALB/c mice (7 to 8 weeks of age). First, the hair of the abdomen of the mice was treated with a hair clipper, and then 150 μL of a 3% oxazolone acetone/ethanol solution was applied to the abdomen as a hapten. One week later, 20 μL/ear of 1% oxazolone acetone/ethanol solution was applied to the outer surface of the auricle of both ears of the mice 3 times/week to induce inflammation. A 1% oxazolone-acetone/ethanol solution was applied every other day for 10 days from 1 week after the start of inflammation induction. In addition, for 10 days from 1 week after the start of inflammation induction, the test compound suspended in 0.5% w/v methylcellulose (0.5% MC) was orally administered at 0.3 to 10 mg/kg twice a day (10 μL/g), or 20 μL of a 0.3 to 3% test compound dissolved in an acetone/ethanol solution was applied once or twice a day (topical administration). A 1% oxazolone was not applied to the blank. The control was one in which 1% oxazolone was applied and only 0.5% MC was orally administered without using the test compound, or only an acetone/ethanol solution was applied.
After administration for 10 days, auricle thickness was measured using a dial thickness gauge, and the changes in auricular thickness before the treatment (immediately before the start of administration of the test compound) and after the treatment (after the administration of the test compound for 10 days) were used to calculate the edema suppression rate by the following formula. Edema Suppression Rate (%)={1−(Auricle Thickness After Treatment by Test Compound−Auricle Thickness Before Treatment by Test Compound)/(Auricle Thickness After Treatment of Control−Auricle Thickness Before Treatment of Control)}×100
The measurement results obtained by measuring the edema suppression rate at the time of oral administration of each test compound by the above method were evaluated in accordance with the following evaluated basis; A: 70% or more, B: 40% or more and less than 70%, and C: less than 40%. In addition, the measurement results obtained by measuring the edema suppression rate at the time of topical administration of each test compound were evaluated in accordance with the following evaluated basis; A: 100% or more, B: 70% or more and less than 100%, and C: less than 70%.

[2] = Hepatic metabolic stability (rat liver microsome method); format: in vitro ADME; conditions: rat liver microsomes 0.5 mg/mL, test substance 1 μM, NADPH 1 mM, 37° C., 30 minutes
Procedure, shortened: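 Scored by % parent left after 30 min (30 min/0 min ×100, LC-MS), banded A ≥75%, B 60–<75%, C 45–<60%, D <45%. Incubation: 1 μM compound, 0.5 mg/mL rat microsomes, pH 7.4 phosphate buffer, 37° C, 5 min preincubation, NADPH 1 mM started, acetonitrile quench.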

[3] = finer grading of compounds rated A in Evaluation 1, read-out: PDE4 Inhibitory Activity (Evaluation 2)
[4] = scintillation proximity assay, read-out: PDE4 Inhibitory Activity (Evaluation 1; concentration for the inhibition rate of 50%)

In the case of `COC(c1cc(-c2nccs2)c2oc(N3CC4CC(C3)N4)nc2c1OC(F)(F)F)C(F)F` (stereo not shown) [Example 208, 2-(3,6-Diazabicyclo[3.1.1]heptan-3-yl)-5-(2,2-difluoro-1-methoxyethyl)-7-(thiazol-2-yl)-4-(trifluoromethoxy)benzo[d]oxazole], the IC50 (PDE4; [3]) is reported as 1 to 11 nM, the IC50 (PDE4; [4]) is reported as < 100 nM and the PDE4 inhibitory activity (PDE4) is reported as “particularly excellent”. For the same compound, the “Mouse Chronic Dermatitis Model (Test Example 8), Oral: edema suppression rate” value (from here on “Mouse Chronic Dermatitis Model”) [1] was “B (B: 40% or more and less than 70%)”.

For `CC(=O)c1cc(-c2nccs2)c2oc(N3CC4CC(C3)N4)nc2c1OC(F)(F)F` [Example 212, 1-(2-(3,6-Diazabicyclo[3.1.1]heptan-3-yl)-7-(thiazol-2-yl)-4-(trifluoromethoxy)benzo[d]oxazol-5-yl)ethan-1-one], the IC50 (PDE4; [3]) was ≤ 1 nM, the IC50 (PDE4; [4]) was < 100 nM and the PDE4 inhibitory activity (PDE4) was “particularly excellent”. The “Mouse Chronic Dermatitis Model” value [1] was “B (B: 40% or more and less than 70%)”.

With `CC(O)(c1ccc(-c2nccs2)c2oc(N3CC4CC(C3)N4)nc12)C(F)(F)F` (stereo not shown) [Example 234, 2-(2-(3,6-Diazabicyclo[3.1.1]heptan-3-yl)-7-(thiazol-2-yl)benzo[d]oxazol-4-yl)-1,1,1-trifluoropropan-2-ol] the IC50 (PDE4; [3]) was ≤ 1 nM, the IC50 (PDE4; [4]) was < 100 nM and the PDE4 inhibitory activity (PDE4) was “particularly excellent”. For the same compound, the “Mouse Chronic Dermatitis Model” value [1] was “A (A: 70% or more)”.

With `COC(C)(c1ccc(-c2nccs2)c2oc(N3CC4CC(C3)N4)nc12)C(F)(F)F` (stereo not shown) [Example 235, 2-(3,6-Diazabicyclo[3.1.1]heptan-3-yl)-7-(thiazol-2-yl)-4-(1,1,1-trifluoro-2-methoxypropan-2-yl)benzo[d]oxazole] the IC50 (PDE4; [3]) was ≤ 1 nM, the IC50 (PDE4; [4]) was < 100 nM and the PDE4 inhibitory activity (PDE4) was “particularly excellent”. The “Mouse Chronic Dermatitis Model” value [1] was “A (A: 70% or more)”.

For `CC(O)(c1ccc(-c2nccs2)c2oc(N3CC4CC(C3)N4)nc12)C(F)F` (stereo not shown) [Example 296, 2-(2-(3,6-Diazabicyclo[3.1.1]heptan-3-yl)-7-(thiazol-2-yl)benzo[d]oxazol-4-yl)-1,1-difluoropropan-2-ol], the IC50 (PDE4; [3]) was 1 to 11 nM, the IC50 (PDE4; [4]) was < 100 nM and the PDE4 inhibitory activity (PDE4) was “particularly excellent”. For the same compound, the “Mouse Chronic Dermatitis Model” value [1] was “A (A: 70% or more)”.

In the case of `Cn1ccc(-c2ccc(OC(F)(F)C(C)(C)O)c3nc(N4CC5CC(C4)N5)oc23)n1` [Example 394, 1-((2-(3,6-Diazabicyclo[3.1.1]heptan-3-yl)-7-(1-methyl-1H-pyrazol-3-yl)benzo[d]oxazol-4-yl)oxy)-1,1-difluoro-2-methylpropan-2-ol], the IC50 (PDE4; [4]) is reported as 100 to 1000 nM and the “Residual ratio (% remaining for 30-minute reaction)” value [2] is reported as “A (A: a % remaining rate of 75% or more)”.

For `CCC(O)C(F)(F)Oc1ccc(-c2nccs2)c2oc(N3CC4CC(C3)N4)nc12` (stereo not shown) [Example 395, 1-((2-(3,6-Diazabicyclo[3.1.1]heptan-3-yl)-7-(thiazol-2-yl)benzo[d]oxazol-4-yl)oxy)-1,1-difluorobutan-2-ol], the IC50 (PDE4; [4]) was < 100 nM and the “Residual ratio (% remaining for 30-minute reaction)” value [2] was “B (B: 60% or more and less than 75%)”.

In the case of `OC1CCN(c2ccc(-c3nccs3)c3oc(N4CC5CC(C4)N5)nc23)CC1` [Example 397, 1-(2-(3,6-Diazabicyclo[3.1.1]heptan-3-yl)-7-(thiazol-2-yl)benzo[d]oxazol-4-yl)piperidin-4-ol], the IC50 (PDE4; [4]) is reported as < 100 nM and the “Residual ratio (% remaining for 30-minute reaction)” value [2] is reported as “A (A: a % remaining rate of 75% or more)”.

In the case of `CC(C)(O)C(F)(F)Oc1c(Br)cc(-c2nccs2)c2oc(N3CC4CC(C3)N4)nc12` [Example 399, 1-((2-(3,6-Diazabicyclo[3.1.1]heptan-3-yl)-5-bromo-7-(thiazol-2-yl)benzo[d]oxazol-4-yl)oxy)-1,1-difluoro-2-methylpropan-2-ol], the IC50 (PDE4; [4]) is reported as < 100 nM and the “Residual ratio (% remaining for 30-minute reaction)” value [2] is reported as “B (B: 60% or more and less than 75%)”.

For `CC(C)(O)C(F)(F)Oc1c(Cl)cc(-c2nccs2)c2oc(N3CC4CC(C3)N4)nc12` [Example 400, 1-((2-(3,6-Diazabicyclo[3.1.1]heptan-3-yl)-5-chloro-7-(thiazol-2-yl)benzo[d]oxazol-4-yl)oxy)-1,1-difluoro-2-methylpropan-2-ol], the IC50 (PDE4; [4]) was < 100 nM and the “Residual ratio (% remaining for 30-minute reaction)” value [2] was “B (B: 60% or more and less than 75%)”.

For `OCC(F)(F)Oc1c(Cl)cc(-c2nccs2)c2oc(N3CC4CC(C3)N4)nc12` [Example 401, 2-((2-(3,6-Diazabicyclo[3.1.1]heptan-3-yl)-5-chloro-7-(thiazol-2-yl)benzo[d]oxazol-4-yl)oxy)-2,2-difluoroethan-1-ol], the IC50 (PDE4; [4]) was < 100 nM and the “Residual ratio (% remaining for 30-minute reaction)” value [2] was “A (A: a % remaining rate of 75% or more)”.

With `OCC(F)(F)Oc1ccc(-c2nccs2)c2oc(N3CC4CCC(C3)N4)nc12` [Example 404, 2-((2-(3,8-Diazabicyclo[3.2.1]octan-3-yl)-7-(thiazol-2-yl)benzo[d]oxazol-4-yl)oxy)-2,2-difluoroethan-1-ol] the IC50 (PDE4; [4]) was < 100 nM and the “Residual ratio (% remaining for 30-minute reaction)” value [2] was “B (B: 60% or more and less than 75%)”.

In the case of `CC(C)(O)C(F)(F)Oc1ccc(-c2nccs2)c2oc(N3CC4CCC(C3)N4)nc12` [Example 405, 1-((2-(3,8-Diazabicyclo[3.2.1]octan-3-yl)-7-(thiazol-2-yl)benzo[d]oxazol-4-yl)oxy)-1,1-difluoro-2-methylpropan-2-ol], the IC50 (PDE4; [4]) is reported as < 100 nM and the “Residual ratio (% remaining for 30-minute reaction)” value [2] is reported as “B (B: 60% or more and less than 75%)”.

For `O=C(N1CCOCC1)C(F)(F)Oc1ccc(-c2nccs2)c2oc(N3CC4CC(C3)N4)nc12` [Example 409, 2-((2-(3,6-Diazabicyclo[3.1.1]heptan-3-yl)-7-(thiazol-2-yl)benzo[d]oxazol-4-yl)oxy)-2,2-difluoro-1-morpholinoethan-1-one], the IC50 (PDE4; [4]) was < 100 nM and the “Residual ratio (% remaining for 30-minute reaction)” value [2] was “B (B: 60% or more and less than 75%)”.

With `NC(=O)C(F)(F)Oc1ccc(-c2nccs2)c2oc(N3CC4CC(C3)N4)nc12` [Example 410, 2-((2-(3,6-Diazabicyclo[3.1.1]heptan-3-yl)-7-(thiazol-2-yl)benzo[d]oxazol-4-yl)oxy)-2,2-difluoroacetamide] the IC50 (PDE4; [4]) was < 100 nM and the “Residual ratio (% remaining for 30-minute reaction)” value [2] was “A (A: a % remaining rate of 75% or more)”.

In the case of `O=C(NCCO)C(F)(F)Oc1ccc(-c2nccs2)c2oc(N3CC4CC(C3)N4)nc12` [Example 411, 2-((2-(3,6-Diazabicyclo[3.1.1]heptan-3-yl)-7-(thiazol-2-yl)benzo[d]oxazol-4-yl)oxy)-2,2-difluoro-N-(2-hydroxyethyl)acetamide], the IC50 (PDE4; [4]) is reported as < 100 nM and the “Residual ratio (% remaining for 30-minute reaction)” value [2] is reported as “A (A: a % remaining rate of 75% or more)”.

In the case of `O=C(N1CC(O)C1)C(F)(F)Oc1ccc(-c2nccs2)c2oc(N3CC4CC(C3)N4)nc12` [Example 412, 2-((2-(3,6-Diazabicyclo[3.1.1]heptan-3-yl)-7-(thiazol-2-yl)benzo[d]oxazol-4-yl)oxy)-2,2-difluoro-1-(3-hydroxyazetidin-1-yl)ethan-1-one], the IC50 (PDE4; [4]) is reported as < 100 nM and the “Residual ratio (% remaining for 30-minute reaction)” value [2] is reported as “A (A: a % remaining rate of 75% or more)”.

With `FC(F)(F)c1ccc(Oc2cc(-c3nccs3)c3oc(N4CC5CC(C4)N5)nc3c2)nc1` [Example 413, 2-(3,6-Diazabicyclo[3.1.1]heptan-3-yl)-7-(thiazol-2-yl)-5-((5-(trifluoromethyl)pyridin-2-yl)oxy)benzo[d]oxazole] the IC50 (PDE4; [4]) was < 100 nM and the “Residual ratio (% remaining for 30-minute reaction)” value [2] was “A (A: a % remaining rate of 75% or more)”.
